Measurements published in paper PMC9829398 (Plant Biotechnology Journal, 2022).

Key:
Ralstonia solanacearum = assay type: in vivo, tobacco; details: 5 μM irrigated twice two days after inoculation
PER5 = details: 5 μM for 24 h, confocal microscopy
PEPR1 = assay: PEPR1-CD kinase activity; assay type: biochemical, Arabidopsis
Text: Fig. S10. […] (a) Effects of FER inhibitors on the kinase activity of the Arabidopsis receptor kinase PEPR1 and CERK1 cytoplasmic domains (CDs). […] AT1G73080. […] AT3G21630. DMSO (0.05%; v/v) was used as a negative control. The data are shown as the means ± SDs (n = 4). The assay was repeated three times with similar results. ***, […]) Protein purification of PEPR1-CD and CERK1-CD. […] In (c and d), the data are presented as the means ± SDs of three biological replicates.

tobacco roots = assay: RNA-seq of tobacco roots (DEGs, GO and KEGG classification and enrichment); assay type: in vivo
[1] = KEGG ko00040 Pentose and glucuronate interconversions
[2] = KEGG ko00052 Galactose metabolism
[3] = KEGG ko00062 Fatty acid elongation
[4] = KEGG ko00071 Fatty acid degradation
[5] = KEGG ko00073 Cutin, suberine and wax biosynthesis
[6] = KEGG ko00100 Steroid biosynthesis
[7] = KEGG ko00250 Alanine, aspartate and glutamate metabolism
[8] = KEGG ko00270 Cysteine and methionine metabolism
[9] = KEGG ko00290 Valine, leucine and isoleucine biosynthesis
[10] = KEGG ko00330 Arginine and proline metabolism
[11] = KEGG ko00350 Tyrosine metabolism
[12] = KEGG ko00360 Phenylalanine metabolism
[13] = KEGG ko00410 beta-Alanine metabolism
[14] = KEGG ko00430 Taurine and hypotaurine metabolism
[15] = KEGG ko00460 Cyanoamino acid metabolism
[16] = KEGG ko00480 Glutathione metabolism
[17] = KEGG ko00500 Starch and sucrose metabolism
[18] = KEGG ko00511 Other glycan degradation
[19] = KEGG ko00520 Amino sugar and nucleotide sugar metabolism
[20] = KEGG ko00531 Glycosaminoglycan degradation
[21] = KEGG ko00561 Glycerolipid metabolism
[22] = KEGG ko00564 Glycerophospholipid metabolism
[23] = KEGG ko00590 Arachidonic acid metabolism
[24] = KEGG ko00591 Linoleic acid metabolism
[25] = KEGG ko00592 alpha-Linolenic acid metabolism
[26] = KEGG ko00603 Glycosphingolipid biosynthesis - globo series
[27] = KEGG ko00604 Glycosphingolipid biosynthesis - ganglio series
[28] = KEGG ko00650 Butanoate metabolism
[29] = KEGG ko00730 Thiamine metabolism
[30] = KEGG ko00760 Nicotinate and nicotinamide metabolism
[31] = KEGG ko00770 Pantothenate and CoA biosynthesis
[32] = KEGG ko00904 Diterpenoid biosynthesis
[33] = KEGG ko00905 Brassinosteroid biosynthesis
[34] = KEGG ko00906 Carotenoid biosynthesis
[35] = KEGG ko00908 Zeatin biosynthesis
[36] = KEGG ko00909 Sesquiterpenoid and triterpenoid biosynthesis
[37] = KEGG ko00910 Nitrogen metabolism
[38] = KEGG ko00940 Phenylpropanoid biosynthesis
[39] = KEGG ko00941 Flavonoid biosynthesis
[40] = KEGG ko00950 Isoquinoline alkaloid biosynthesis
[41] = KEGG ko00960 Tropane, piperidine and pyridine alkaloid biosynthesis
[42] = KEGG ko00980 Metabolism of xenobiotics by cytochrome P450
[43] = KEGG ko00982 Drug metabolism - cytochrome P450
[44] = KEGG ko01040 Biosynthesis of unsaturated fatty acids
[45] = KEGG ko03320 PPAR signaling pathway
[46] = KEGG ko04010 MAPK signaling pathway
[47] = KEGG ko04011 MAPK signaling pathway - yeast
[48] = KEGG ko04020 Calcium signaling pathway
[49] = KEGG ko04022 cGMP-PKG signaling pathway
[50] = KEGG ko04075 Plant hormone signal transduction
[51] = KEGG ko04140 Regulation of autophagy
[52] = KEGG ko04211 Longevity regulating pathway
[53] = KEGG ko04212 Longevity regulating pathway - worm
[54] = KEGG ko04370 VEGF signaling pathway
[55] = KEGG ko04380 Osteoclast differentiation
[56] = KEGG ko04614 Renin-angiotensin system
[57] = KEGG ko04626 Plant-pathogen interaction
[58] = KEGG ko04650 Natural killer cell mediated cytotoxicity
[59] = KEGG ko04660 T cell receptor signaling pathway
[60] = KEGG ko04662 B cell receptor signaling pathway
[61] = KEGG ko04712 Circadian rhythm - plant
[62] = KEGG ko04720 Long-term potentiation
[63] = KEGG ko04723 Retrograde endocannabinoid signaling
[64] = KEGG ko04724 Glutamatergic synapse
[65] = KEGG ko04810 Regulation of actin cytoskeleton
[66] = KEGG ko04920 Adipocytokine signaling pathway
[67] = KEGG ko04921 Oxytocin signaling pathway
[68] = KEGG ko04922 Glucagon signaling pathway
[69] = KEGG ko04974 Protein digestion and absorption
[70] = KEGG ko04975 Fat digestion and absorption
[71] = tobacco roots, 5 μM irrigated twice, coregulated genes, vs DMSO

SMILES: c1nc2nc(Nc3ccc(N4CCOCC4)cc3)nc(NC3CCCCC3)c2[nH]1 [Reversine]
- Effect on established tobacco bacterial wilt (Ralstonia solanacearum): could not completely prevent the occurrence of the diseases or cure already diseased plants
- Expression of PER5 in roots (PER5): did not affect the expression levels
- Effect on PEPR1 kinase activity (PEPR1): did not affect the kinase activity
- Enrichment_score (tobacco roots; [1]): 2.934
- ListHits (tobacco roots; [1]): 15
- Enrichment_score (tobacco roots; [2]): 3.3846
- ListHits (tobacco roots; [2]): 8
- Enrichment_score (tobacco roots; [3]): 4.956
- ListHits (tobacco roots; [3]): 8
- Enrichment_score (tobacco roots; [4]): 1.21
- ListHits (tobacco roots; [4]): 2
- Enrichment_score (tobacco roots; [5]): 7.653
- ListHits (tobacco roots; [5]): 15
- Enrichment_score (tobacco roots; [6]): 3.7618
- ListHits (tobacco roots; [6]): 6
- Enrichment_score (tobacco roots; [7]): 2.781
- ListHits (tobacco roots; [7]): 7
- Enrichment_score (tobacco roots; [8]): 1.037
- ListHits (tobacco roots; [8]): 5
- Enrichment_score (tobacco roots; [9]): 0.913
- ListHits (tobacco roots; [9]): 1
- Enrichment_score (tobacco roots; [10]): 1.626
- ListHits (tobacco roots; [10]): 4
- Enrichment_score (tobacco roots; [11]): 1.051
- ListHits (tobacco roots; [11]): 2
- Enrichment_score (tobacco roots; [12]): 3.252
- ListHits (tobacco roots; [12]): 6
- Enrichment_score (tobacco roots; [13]): 0.7434
- ListHits (tobacco roots; [13]): 2
- Enrichment_score (tobacco roots; [14]): 2.082
- ListHits (tobacco roots; [14]): 1
- Enrichment_score (tobacco roots; [15]): 1.927
- ListHits (tobacco roots; [15]): 5
- Enrichment_score (tobacco roots; [16]): 0.8174
- ListHits (tobacco roots; [16]): 3
- Enrichment_score (tobacco roots; [17]): 2.951
- ListHits (tobacco roots; [17]): 33
- Enrichment_score (tobacco roots; [18]): 1.531
- ListHits (tobacco roots; [18]): 1
- Enrichment_score (tobacco roots; [19]): 2.188
- ListHits (tobacco roots; [19]): 14
- Enrichment_score (tobacco roots; [20]): 1.406
- ListHits (tobacco roots; [20]): 1
- Enrichment_score (tobacco roots; [21]): 2.775
- ListHits (tobacco roots; [21]): 8
- Enrichment_score (tobacco roots; [22]): 3.221
- ListHits (tobacco roots; [22]): 13
- Enrichment_score (tobacco roots; [23]): 3.154
- ListHits (tobacco roots; [23]): 2
- Enrichment_score (tobacco roots; [24]): 6.195
- ListHits (tobacco roots; [24]): 5
- Enrichment_score (tobacco roots; [25]): 5.4777
- ListHits (tobacco roots; [25]): 12
- Enrichment_score (tobacco roots; [26]): 2.739
- ListHits (tobacco roots; [26]): 1
- Enrichment_score (tobacco roots; [27]): 5.782
- ListHits (tobacco roots; [27]): 1
- Enrichment_score (tobacco roots; [28]): 2.041
- ListHits (tobacco roots; [28]): 2
- Enrichment_score (tobacco roots; [29]): 1.859
- ListHits (tobacco roots; [29]): 1
- Enrichment_score (tobacco roots; [30]): 2.168
- ListHits (tobacco roots; [30]): 2
- Enrichment_score (tobacco roots; [31]): 0.8531
- ListHits (tobacco roots; [31]): 1
- Enrichment_score (tobacco roots; [32]): 1.837
- ListHits (tobacco roots; [32]): 3
- Enrichment_score (tobacco roots; [33]): 1.735
- ListHits (tobacco roots; [33]): 1
- Enrichment_score (tobacco roots; [34]): 3.294
- ListHits (tobacco roots; [34]): 5
- Enrichment_score (tobacco roots; [35]): 0.9637
- ListHits (tobacco roots; [35]): 2
- Enrichment_score (tobacco roots; [36]): 3.186
- ListHits (tobacco roots; [36]): 3
- Enrichment_score (tobacco roots; [37]): 1.837
- ListHits (tobacco roots; [37]): 3
- Enrichment_score (tobacco roots; [38]): 6.155
- ListHits (tobacco roots; [38]): 55
- Enrichment_score (tobacco roots; [39]): 0.9548
- ListHits (tobacco roots; [39]): 2
- Enrichment_score (tobacco roots; [40]): 1.706
- ListHits (tobacco roots; [40]): 2
- Enrichment_score (tobacco roots; [41]): 1.652
- ListHits (tobacco roots; [41]): 2
- Enrichment_score (tobacco roots; [42]): 1.323
- ListHits (tobacco roots; [42]): 3
- Enrichment_score (tobacco roots; [43]): 1.679
- ListHits (tobacco roots; [43]): 4
- Enrichment_score (tobacco roots; [44]): 1.369
- ListHits (tobacco roots; [44]): 2
- Enrichment_score (tobacco roots; KEGG ko02010 ABC transporters): 2.788
- ListHits (tobacco roots; KEGG ko02010 ABC transporters): 3
- Enrichment_score (tobacco roots; [45]): 1.1072
- ListHits (tobacco roots; [45]): 1
- Enrichment_score (tobacco roots; [46]): 0.9727
- ListHits (tobacco roots; [46]): 2
- Enrichment_score (tobacco roots; [47]): 1.665
- ListHits (tobacco roots; [47]): 4
- Enrichment_score (tobacco roots; [48]): 0.9376
- ListHits (tobacco roots; [48]): 2
- Enrichment_score (tobacco roots; [49]): 0.7381
- ListHits (tobacco roots; [49]): 2
- Enrichment_score (tobacco roots; [50]): 1.411
- ListHits (tobacco roots; [50]): 18
- Enrichment_score (tobacco roots; [51]): 0.6505
- ListHits (tobacco roots; [51]): 1
- Enrichment_score (tobacco roots; KEGG ko04146 Peroxisome): 1.786
- ListHits (tobacco roots; KEGG ko04146 Peroxisome): 7
- Enrichment_score (tobacco roots; [52]): 1.229
- ListHits (tobacco roots; [52]): 3
- Enrichment_score (tobacco roots; [53]): 1.436
- ListHits (tobacco roots; [53]): 4
- Enrichment_score (tobacco roots; KEGG ko04360 Axon guidance): 1.183
- ListHits (tobacco roots; KEGG ko04360 Axon guidance): 2
- Enrichment_score (tobacco roots; [54]): 1.8259
- ListHits (tobacco roots; [54]): 2
- Enrichment_score (tobacco roots; [55]): 1.8259
- ListHits (tobacco roots; [55]): 2
- Enrichment_score (tobacco roots; [56]): 7.434
- ListHits (tobacco roots; [56]): 2
- Enrichment_score (tobacco roots; [57]): 1.449
- ListHits (tobacco roots; [57]): 12
- Enrichment_score (tobacco roots; [58]): 1.9637
- ListHits (tobacco roots; [58]): 2
- Enrichment_score (tobacco roots; [59]): 2.365
- ListHits (tobacco roots; [59]): 2
- Enrichment_score (tobacco roots; [60]): 1.794
- ListHits (tobacco roots; [60]): 2
- Enrichment_score (tobacco roots; [61]): 1.03
- ListHits (tobacco roots; [61]): 2
- Enrichment_score (tobacco roots; [62]): 1.352
- ListHits (tobacco roots; [62]): 2
- Enrichment_score (tobacco roots; [63]): 1.239
- ListHits (tobacco roots; [63]): 1
- Enrichment_score (tobacco roots; [64]): 2.42
- ListHits (tobacco roots; [64]): 4
- Enrichment_score (tobacco roots; KEGG ko04727 GABAergic synapse): 1.466
- ListHits (tobacco roots; KEGG ko04727 GABAergic synapse): 2
- Enrichment_score (tobacco roots; [65]): 1.14
- ListHits (tobacco roots; [65]): 3
- Enrichment_score (tobacco roots; [66]): 2.775
- ListHits (tobacco roots; [66]): 4
- Enrichment_score (tobacco roots; [67]): 0.8531
- ListHits (tobacco roots; [67]): 2
- Enrichment_score (tobacco roots; [68]): 0.5913
- ListHits (tobacco roots; [68]): 2
- Enrichment_score (tobacco roots; KEGG ko04924 Renin secretion): 1.859
- ListHits (tobacco roots; KEGG ko04924 Renin secretion): 2
- Enrichment_score (tobacco roots; [69]): 6.938
- ListHits (tobacco roots; [69]): 2
- Enrichment_score (tobacco roots; [70]): 4.337
- ListHits (tobacco roots; [70]): 1
- Enrichment_score (tobacco roots; KEGG ko04976 Bile secretion): 2.838
- ListHits (tobacco roots; KEGG ko04976 Bile secretion): 3
- Expression levels of growth-related genes in tobacco roots (tobacco roots; RNA-seq, GO growth, vs DMSO): differentially elevated the expression levels of most growth‐related genes
- Expression levels of RBOHs, MYB44, TGA2, WRKY19, EFR, FLS2, PR1 and PDF1.4 in tobacco roots (tobacco roots; RNA-seq, vs DMSO): significantly increased the expression levels
- Antioxidant genes (GO antioxidant activity) up-regulated (tobacco roots; [71]): 60 of 61
- Immune genes (GO immune system process) up-regulated (tobacco roots; [71]): 70 of 82
- Environmental adaptation-related genes (KEGG) up-regulated (tobacco roots; tobacco roots, coregulated genes, vs DMSO): 22 of 29
